Experimental data published in patent publication US7607596B1, “Process for enhancing the solubility of poorly soluble drugs” (Exxpharma, LLC, priority 2007, dated 2009).

Experiment: dissolution rate of ketoprofen in 0.1 N HCl
Assay type: physicochemical
Details: granulated with microcrystalline cellulose

For CC(C(=O)O)c1cccc(C(=O)c2ccccc2)c1 (centres unmarked) [ketoprofen, Ketoprofen], the “dissolution rate of ketoprofen in 0.1N HCl (change after processing)” value (“dissolution rate … (change after processing)” below) (Example 1: ketoprofen ground/mixed with distilled water in TSGM, 200 rpm, 25° C., dried at 40° C.) was “increased two-fold”, the “dissolution rate … (change after processing)” value (Example 2: ketoprofen ground/mixed with 10% aqueous solution of Labrasol in TSGM) was “increased two-fold” and the “dissolution rate … (change after processing)” value (Example 3: ketoprofen ground/mixed with 10% aqueous solution of Tween 80 in TSGM) was “increased four-fold”. For the same compound, the “dissolution rate … (change after processing)” value (Example 4: ketoprofen ground/mixed with 10% aqueous solution of Capryol 90 in TSGM) was “increased two-fold” and the “dissolution rate … (change after processing)” value (Example 5: ketoprofen ground/mixed with 10% aqueous solution of polyvinylpyrrolidone in TSGM) was “increased three-fold”.
